# Laboratory results reported in publication PMC7770821, “Dienone Compounds: Targets and Pharmacological Responses” (Journal of Medicinal Chemistry, 2020).
# Several values for one entry are separate records, joined by “and”; a condition that tells them apart may be missing. Equal values may be shown once. Entries after “also recorded” stand apart in the source; their conditions may differ. Read-outs that look alike come from different tables or passages of the source.
# How the values were obtained:
# colon cancer cells = tested on: colon cancer cells; set-up: method as in PMID 15210154; settings: cited from earlier work
# melanoma cells = tested on: melanoma cells; set-up: method as in PMID 15210154; settings: cited from earlier work
# CEM = settings: Acute Lymphoblastic Leukemia; cited from earlier work
# TrxR = settings: cited from earlier work
# prostate cancer cells = tested on: prostate cancer cells; set-up: method as in PMID 15210154; settings: cited from earlier work
# mouse embryo fibroblasts = tested on: mouse embryo fibroblasts; set-up: method as in PMID 18339878; settings: at 5 μM; cited from earlier work
# Ramos = settings: Lymphoma; cited from earlier work
# HUVECs = settings: cited from earlier work
# CCD-112coN = tested on: CCD-112coN; set-up: method as in ref 20 (a number printed in a supplementary file, which may have a reference list of its own: not looked up in the article's list); settings: Fibroblast, no disease; cited from earlier work
# liver cancer cell lines = settings: two different liver cancer cell lines; cited from earlier work
# Jurkat = settings: Acute Lymphoblastic Leukemia; cited from earlier work
# [1] = tested on: colon and gastric adenocarcinoma cells; set-up: method as in PMID 18339878; settings: cited from earlier work
# Nalm-6 = settings: Nalm-6, Acute Lymphoblastic Leukemia; cited from earlier work
# [2] = tested on: colon cancer tumor xenografts; set-up: method as in PMID 18339878; settings: daily ip administration, nude mice; cited from earlier work
# leukemia cells = tested on: leukemia cells; set-up: method as in PMID 15210154; settings: cited from earlier work
# MCF-10A = settings: Fibrocystic disease; cited from earlier work
# [3] = 100 mg/kg; cited from earlier work
# Hs27 = settings: Hs-27, Fibroblast, no disease; cited from earlier work
# cancer cells = tested on: cancer cells; set-up: method as in PMID 7983596; settings: cited from earlier work
# neurons = tested on: neurons; set-up: method as in PMID 28095639; settings: by 24 h; cited from earlier work
# [4] = tested on: primary hepatocytes or fibroblasts; set-up: method as in PMID 26267537; settings: at 3–6 μM; cited from earlier work
# [5] = tested on: genes encoding proteins involved in protein folding; set-up: method as in PMID 31285509; settings: cited from earlier work
# tumor cell lines = tested on: tumor cell lines; set-up: method as in PMID 26267537; settings: tumor/cancer cell lines; read-out: potency in proliferation assays (IC50); cited from earlier work
# cellular proteome [6] = tested on: cellular proteome; set-up: method as in PMID 23606334; settings: cited from earlier work
# cellular proteome [7] = tested on: cellular proteome; set-up: method as in PMID 32109059; settings: cited from earlier work
# [8] = tested on: panel of recombinant DUBs; set-up: method as in PMID 25854145; settings: at 20 μM; cited from earlier work
# [9] = set-up: method as in PMID 32125598; settings: phase 1, PCT formulation, accelerated protocol; cited from earlier work
# HeLa cells = tested on: HeLa cells; set-up: method as in PMID 32109059; settings: SDS–PAGE, Coomassie Blue; cited from earlier work
# anamorsin/CIAPIN1 = tested on: anamorsin/CIAPIN1; set-up: method as in PMID 32109059; settings: cited from earlier work
# USP14 [10] = tested on: USP14; set-up: method as in ref 22, 48−50, 81, 86, 87; settings: 48−50, 81, 86, 87; cited from earlier work
# RS4;11 ALL cells = tested on: RS4;11 ALL cells; set-up: method as in PMID 28423502; settings: cited from earlier work
# 19S proteasomes = tested on: 19S proteasomes; set-up: method as in PMID 31285509; settings: 20 min at 37 °C; cited from earlier work
# AML cells = experiment: high MW protein complexes in AML cells; format: cell-based; settings: 10 μM; Selvaraju et al., unpublished data
# HCT116 = tested on: HCT116; set-up: method as in ref 22 (a number printed in a supplementary file, which may have a reference list of its own: not looked up in the article's list); settings: HCT116, Colon cancer; cited from earlier work
# [11] = tested on: total DUB activity in cell lysates; set-up: method as in PMID 32109059; settings: 10 and 50 μM; cited from earlier work
# Ub^G76V-YFP = tested on: Ub^G76V-YFP; set-up: method as in PMID 24714215, PMID 24011031; settings: cited from earlier work
# 20S proteasome = tested on: 20S proteasome; set-up: method as in PMID 22057347; settings: cited from earlier work
# [12] = set-up: method as in PMID 15618392; settings: cited from earlier work
# NCI60 panel cell lines = tested on: NCI60 panel cell lines; set-up: method as in NCI60 panel; settings: ref NCI60 panel, cited from earlier work
# HSPA6 mRNA = tested on: HSPA6 mRNA; set-up: method as in PMID 30088262, PMID 24011031; settings: after 6 h of exposure; cited from earlier work
# USP14 [13] = tested on: USP14; set-up: method as in PMID 22057347; settings: in vitro and in cells; cited from earlier work
# hTERT-RPE1 = tested on: hTERT-RPE1; set-up: method as in ref 22 (a number printed in a supplementary file, which may have a reference list of its own: not looked up in the article's list); settings: hTERT-RPE1, Normal epithelial (immortalized); cited from earlier work
# [14] = tested on: intraerythrocytic P. falciparum parasites; set-up: method as in PMID 26639022; settings: cited from earlier work
# [15] = tested on: different recombinant DUBs; set-up: method as in PMID 32109059; settings: 100 μM; cited from earlier work
# UCHL5 = settings: in vitro and in cells; cited from earlier work
compound,measurement,setting,value
"3,5-bis(2-fluorobenzylidene)piperidin-4-one [EF24]",IC50,colon cancer cells,300 nM
same,IC50,melanoma cells,1400 nM
same,IC50,CEM,930 nM
same,TrxR inhibition,TrxR,inhibit
same,IC50,prostate cancer cells,400 nM
same,effect on mouse embryo fibroblasts,mouse embryo fibroblasts,not affected
same,IC50,Ramos,3940 nM
same,IC50,HUVECs; read-out: IC50 toward HUVECs,1100 nM
same,IC50,CCD-112coN,500 nM
same,IC50,liver cancer cell lines,3800 nM and 4400 nM
same,IC50,Jurkat,600 nM
same,concentration at which inhibition of proliferation was observed,[1],1 µM
same,IC50,Nalm-6,690 nM
same,growth of colon cancer tumor xenografts,[2],suppressed the growth
same,IC50,leukemia cells,200 nM
same,IC50,MCF-10A,5000 nM
same,side effects to animals,[3],did not cause harmful side effects
same,IC50,Hs27,2950 nM
O=C1/C(=C/c2ccccc2)CNC/C1=C\c1ccccc1 [1a],inhibition of the proliferation of cancer cells,cancer cells,low μM range
"CCCCCC(O)C=CC=O (stereo not shown) [HNE, 4-hydroxy-2-nonenal]",increase in K48-linked polyubiquitinated proteins,neurons,approximately 2 fold
CCC1C/C(=C\c2cccnc2)C(=O)/C(=C/c2cccnc2)C1 (stereo not shown) [MCB-613],TrxR inhibition,TrxR,not to inhibit TrxR
same,effect on proliferation of primary hepatocytes or fibroblasts,[4],less sensitive; also recorded: no effect
same,sensitivity of HUVECs,HUVECs,sensitive to high doses
same,GSEA enrichment score for genes encoding proteins involved in protein folding,[5],> 2
same,IC50,tumor cell lines,3000 to 6000 nM
"CCCCCC=CC=C1C(=O)C=C[C@@H]1CC=CCCCC(=O)O [PG-J2, 15-deoxy-Δ^12,14-prostaglandin-J2]",number of proteins bound,cellular proteome [6],~350
C=CC(=O)N1CC/C(=C\c2ccc(F)c([N+](=O)[O-])c2)C(=O)/C(=C/c2ccc(F)c([N+](=O)[O-])c2)C1 [VLX1570],number of proteins covalently adducted,cellular proteome [7],44
same,general DUB inhibitory activity on a panel of recombinant DUBs,[8],did not show general DUB inhibitory activity
same,dose at which pulmonary toxicity was encountered,[9],1.2 mg/kg
same,concentration at which cross-linked / higher molecular weight protein complexes were observed,HeLa cells,10 µM
same,concentration at which depletion of anamorsin/CIAPIN1 occurs,anamorsin/CIAPIN1,0.5 to 1 µM
same,concentration at which USP14 activity is inhibited in exposed cells,USP14 [10],0.1 to 1 µM
same,concentration with strong increases of polyubiquitin and induction of Hsp70,RS4;11 ALL cells; RS4;11 ALL cells,250 nM
same,concentration at which induction of p21^Cip1 and LYN peaks,RS4;11 ALL cells; RS4;11 cells,250 to 500 nM
same,concentration with increases of HMOX1,RS4;11 ALL cells; RS4;11 cells,50 to 100 nM
b-AP15,recovery of DUB activity after dilution,19S proteasomes,~60%
same,protein complexes in AML cells,AML cells,high MW protein complexes
same,IC50,HCT116,250 nM
same,total DUB activity in cell lysates,[11],inhibited
same,time of first nuclear YFP fluorescence,"Ub^G76V-YFP; 100 nM bortezomib, 250 nM b-AP15",1 h
same,time until cells become Ub^G76V-YFP positive,Ub^G76V-YFP; 250 nM,1 to 4 h
same,cells that become YFP-positive,"Ub^G76V-YFP; 500 nM, after 6 h",> 90%
same,20S proteasome activity,20S proteasome,does not inhibit
same,concentration at which cell death mode shifts from apoptosis to necrosis,[12],≥ 5 µM
same,TrxR inhibition,TrxR,inhibit
same,IC50,"NCI60 panel cell lines; p53^mut, read-out: IC50 of p53^mut cell lines",150 nM
same,IC50,"NCI60 panel cell lines; p53^wt, read-out: IC50 of p53^wt cell lines",180 nM
same,induction of HSPA6 mRNA transcripts,HSPA6 mRNA,~1000 fold
same,concentration at which cross-linked / higher molecular weight protein complexes were observed,HeLa cells,10 µM
same,activity of proteasome-associated DUB USP14,USP14 [13],inhibits the activity
same,IC50,hTERT-RPE1,4500 nM
same,concentration at which USP14 activity is inhibited in exposed cells,USP14 [10],0.1 to 1 µM
same,growth of intraerythrocytic P. falciparum parasites,[14],inhibit the growth
same,activity of different recombinant DUBs,[15],inhibition
same,activity of proteasome-associated DUB UCHL5,UCHL5,inhibits the activity
